tested on: HEK293 cells; assay: Preliminary screening as DNA vectors, GFP transfection of HEK293 cells; format: cell-based; settings: HEK293 cells; lipid/DOPE liposome with 75 ng plasmid DNA (psin-EGFP-IRES-Puro); number of cells expressing GFP divided by total number of nuclei (Hoechst)
Procedure, shortened: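 First, amino lipid and DOPE were vortexed in sodium acetate buffer (pH 5.6) to form liposomes. Next, these were held with 75 ng EGFP plasmid at room temperature for 30 min. Finally, HEK293 cells were added, cultured at 37° C., Hoechst-stained, and GFP+/total nuclei scored by imaging.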

| Compound | Absolute DNA transfection efficiency in HEK293 cells [%] |
| --- | --- |
| CCCCCCCCCCCCCCCCSc1nc(NCCN2CCOCC2)nc(SCCCCCCCCC)n1 [Compound S9S16D2] | 1.5 |

tested on: HEK293 cells; assay: Preliminary screening as mRNA vectors, EGFP mRNA transfection of HEK293 cells; format: cell-based; settings: HEK293 cells, 96-well plates, EGFP mRNA 50 ng per well; percentage of GFP fluorescent cells relative to total number of cells (Hoechst)
Procedure, shortened: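 Screening format: EGFP mRNA transfection (50 ng/well) into HEK293 in 10% FBS-supplemented DMEM. Percent green fluorescent cells, normalised to Hoechst nuclear count, gave the value; Lipofectamine2000 was the reference transfectant.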

| Compound | Absolute mRNA transfection efficiency in HEK293 cells [%] |
| --- | --- |
| CCCCCCCCCCCCCCCCSc1nc(NCCN2CCOCC2)nc(SCCCCCCCCC)n1 [Compound S9S16D2] | 0.0 |

tested on: Hela cells; assay: Transfection of Hela cell line, DNA vectors; format: cell-based; settings: 75 ng plasmid DNA, GFP cells / total cells
Method: 1. The compound (0.01 mmol) prepared in Example 1 was dissolved in 1 mL of anhydrous ethanol. After ultrasonically dissolved, 10 μL of the resultant amino lipid solution in ethanol was taken and mixed with 5 μL of DOPE solution in ethanol (0.01 m), and then to the obtained mixture was added 35 μL of 0.2M sodium acetate buffer (pH 5.6), and 50 μL of liposome solution was prepared by vortex at a constant rotating speed for 30 s. 4 μL was taken from the 50 μL liposome solution and added to 46 μL of 0.02M sodium acetate buffer (pH 5.6), and the final liposome solution was formed by vortex at a constant rotating speed for 30 s. 5 μL was taken from the final liposome solution and mixed with 75 ng plasmid DNA (psin-EGFP-IRES-Puro, Clontech) dissolved in 5 μL of 0.02 M sodium acetate buffer, and was allowed to stay at room temperature for 30 min to form a lipid/DNA transfection complex.
2. 10 μL of the lipid/DNA transfection complex was incubated at room temperature for 30 min, followed by addition of 90 μL of fresh resuspended cells (3-5×10^4 cells) and mixing with a pipette. 100 μL of cells+lipid/DNA complex was transferred to separate wells of a 96-well culture plate immediately, and placed in an incubator containing 5% CO2 at 37° C.
3. Hoechst33258 (Invitrogen) was added at a final concentration of 0.2 μg/mL to the cells 20 to 24 hours after initial cell transfection, and cultured in darkness at 37° C. for 15 min. Afterwards, the cells were washed once with a PBS solution, and then added with medium for culture for 20 to 24 h.
4. The cells were placed in a high-throughput confocal microscope (Molecular Devices ImageXpress), and four visual fields of the image of the cells were captured for each well, and images at three laser wavelengths were captured for each sample: bright field images of cells (FIG. 2(a) and FIG. 2(b)), Hoechst-staining images showing total nuclei (FIG. 2(c) and FIG. 2(d)) and GFP images showing success in transfection with the plasmid DNA and the expression of GFP (FIG. 2(e) and FIG. 2(f)). MetaXpress software was used to separately count the cells in the Hoechst-staining images and GFP images, and then the number of cells expressing GFP was divided by the total number of nuclei to give the absolute cell transfection efficiency. The absolute transfection efficiency was calculated as follows: […]
(§1) Cell line: Hela cells (ATCC 35241)
(§2) Medium: DMEM supplemented with 10% fetal bovine serum (Invitrogen)
(§3) Screening: cell transfection on 96-well plates
Detection (readout): percentage of the number of GFP fluorescent cells relative to the total number of cells (the total number of cells was determined using nucleus dye Hoechst). Lipofectamine2000 (Invitrogen) was used as the positive control, according to the manufacturer's instructions.
Method: the experimental method was basically the same with Example 4.

| Compound | Absolute DNA transfection efficiency in Hela cells [%] |
| --- | --- |
| CCCCCCCCCCCCCCCCSc1nc(NCCN2CCOCC2)nc(SCCCCCCCCC)n1 [Compound S9S16D2] | 0.7 |
| CCCCCCCCCCCSc1nc(NCCCCCCC)nc(NCCN(C)C)n1 [Compound S11N7D1] | 13.9 |
| CCCCCCCCCCCSc1nc(NCCCCCCC)nc(NCCN2CCOCC2)n1 [Compound S11N7D2] | 5.8 |
| CCCCCCCCCCCSc1nc(NCCCCCCC)nc(NCCN2CCCCC2)n1 [Compound S11N7D4] | 2.3 |
| CCCCCCCCCCCSc1nc(NCCCCCCC)nc(NCCN(CC)CC)n1 [Compound S11N7D7] | 5.8 |
| CCCCCCCCCCCSc1nc(NCCCCCCCC)nc(NCCN(C)C)n1 [Compound S11N8D1] | 9.9 |
| CCCCCCCCCCCSc1nc(NCCCCCCCC)nc(NCCN2CCOCC2)n1 [Compound S11N8D2] | 9.3 |
| CCCCCCCCCCCSc1nc(NCCCCCCCC)nc(NCCN2CCCCC2)n1 [Compound S11N8D4] | 2.9 |
| CCCCCCCCCCCSc1nc(NCCCCCCCC)nc(NCCN(CC)CC)n1 [Compound S11N8D7] | 5.7 |
| CCCCCCCCCCCSc1nc(NCCCCCCCCC)nc(NCCN(C)C)n1 [Compound S11N9D1] | 6.0 |
| CCCCCCCCCCCSc1nc(NCCCCCCCCC)nc(NCCN2CCOCC2)n1 [Compound S11N9D2] | 6.8 |
| CCCCCCCCCCCSc1nc(NCCCCCCCCC)nc(NCCN2CCCCC2)n1 [Compound S11N9D4] | 0.5 |
| CCCCCCCCCCCSc1nc(NCCCCCCCCC)nc(NCCN(CC)CC)n1 [Compound S11N9D7] | 0.9 |

tested on: Hela cells; assay: Transfection of Hela cell line, mRNA vectors; format: cell-based; settings: 50 ng EGFP mRNA per well
Method: as §1, §2, §3
Detection (readout): percentage of the number of GFP fluorescent cells relative to the total number of cells (the total number of cells was determined using nucleus dye Hoechst). A commercially available liposome transfection reagent Lipofectamine2000 (Invitrogen) was used as the positive control group, according to the manufacturer's instructions.
Method: the experimental method was basically the same with Example 4, and the mass of EGFP mRNA for transfection was 50 ng per well.

| Compound | Absolute mRNA transfection efficiency in Hela cells [%] |
| --- | --- |
| CCCCCCCCCCCCCCCCSc1nc(NCCN2CCOCC2)nc(SCCCCCCCCC)n1 [Compound S9S16D2] | 0.7 |
| CCCCCCCCCCCSc1nc(NCCCCCCC)nc(NCCN(C)C)n1 [Compound S11N7D1] | 13.9 |
| CCCCCCCCCCCSc1nc(NCCCCCCC)nc(NCCN2CCOCC2)n1 [Compound S11N7D2] | 5.8 |
| CCCCCCCCCCCSc1nc(NCCCCCCC)nc(NCCN2CCCCC2)n1 [Compound S11N7D4] | 2.3 |
| CCCCCCCCCCCSc1nc(NCCCCCCC)nc(NCCN(CC)CC)n1 [Compound S11N7D7] | 5.8 |
| CCCCCCCCCCCSc1nc(NCCCCCCCC)nc(NCCN(C)C)n1 [Compound S11N8D1] | 9.9 |
| CCCCCCCCCCCSc1nc(NCCCCCCCC)nc(NCCN2CCOCC2)n1 [Compound S11N8D2] | 9.3 |
| CCCCCCCCCCCSc1nc(NCCCCCCCC)nc(NCCN2CCCCC2)n1 [Compound S11N8D4] | 2.9 |
| CCCCCCCCCCCSc1nc(NCCCCCCCC)nc(NCCN(CC)CC)n1 [Compound S11N8D7] | 5.7 |
| CCCCCCCCCCCSc1nc(NCCCCCCCCC)nc(NCCN(C)C)n1 [Compound S11N9D1] | 6.0 |
| CCCCCCCCCCCSc1nc(NCCCCCCCCC)nc(NCCN2CCOCC2)n1 [Compound S11N9D2] | 6.8 |
| CCCCCCCCCCCSc1nc(NCCCCCCCCC)nc(NCCN2CCCCC2)n1 [Compound S11N9D4] | 0.5 |
| CCCCCCCCCCCSc1nc(NCCCCCCCCC)nc(NCCN(CC)CC)n1 [Compound S11N9D7] | 0.9 |

Source: patent US20230123334A1, “AMINO LIPID COMPOUND, PREPARATION METHOD THEREFOR, AND APPLICATION THEREOF” (SHENZHEN SHENXIN BIOTECHNOLOGY CO., LTD., priority 2020, published 2023)
